pEC50: −log10 of the molar value. Where two headings read alike, the source gives them in different places.
Target: T1, SFRP-1 (Homo sapiens, UniProt Q8N474)
T1 sequence (Q8N474 32-314): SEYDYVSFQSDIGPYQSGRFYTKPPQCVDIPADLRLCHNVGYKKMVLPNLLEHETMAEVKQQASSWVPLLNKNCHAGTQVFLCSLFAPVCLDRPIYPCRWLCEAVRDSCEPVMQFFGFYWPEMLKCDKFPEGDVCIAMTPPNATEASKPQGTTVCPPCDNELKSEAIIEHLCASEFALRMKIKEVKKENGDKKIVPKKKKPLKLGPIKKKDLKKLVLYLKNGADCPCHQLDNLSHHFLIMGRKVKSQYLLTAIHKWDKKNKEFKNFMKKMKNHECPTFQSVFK
Assay: Cell-based assay for in vitro measurement of SFRP-1/SARP2 antagonist activity (U2OS cells co-transfected with 16x TCF-tk-Luciferase reporter, Wnt and hSFRP-1);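 also: U2OS cells co-transfected with a TCF-tk luciferase reporter, a Wnt vector, hSFRP-1 or empty vector and CMV-βgal, luciferase luminescence read in cell lysates alongside βgal activity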
Conditions: for fold induction at 30 µM / fold induction at 15 µM / fold induction at 10 µM / fold induction at 20 µM: U2OS; for fold induction at 10 µM: read-out: Fold Induction with SFRP-1, U2OS cells, single dose 10 μM, luciferase reporter, fold induction over SFRP-1 control

[1] = read-out: Fold Induction with SFRP-1, Conc 30 μM, with SFRP-1, fold induction over SFRP-1 control, single dose
[2] = read-out: Fold Induction without SFRP-1, Conc 30 μM, without SFRP-1, single dose
[3] = Conc 15 μM, with SFRP-1, fold induction over SFRP-1 control, single dose
[4] = read-out: Fold Induction with SFRP-1, Conc 15 μM, with SFRP-1, fold induction over SFRP-1 control, single dose
[5] = read-out: Fold Induction without SFRP-1, Conc 15 μM, without SFRP-1, single dose
[6] = read-out: Fold Induction with SFRP-1, Conc 20 μM, with SFRP-1, fold induction over SFRP-1 control, single dose
[7] = read-out: Fold Induction without SFRP-1, Conc 20 μM, without SFRP-1, single dose

SMILES	fold induction at 15 µM [4]	fold induction at 15 µM [5]	further results
COc1cccc(CCNS(=O)(=O)c2cc(S(=O)(=O)c3ccccc3)ccc2C)c1 [Example 33, N-[2-(3-methoxyphenyl)ethyl]-2-methyl-5-(phenylsulfonyl)benzenesulfonamide]			fold induction at 30 µM [1]: 1.2; fold induction at 30 µM [2]: 0.4
CCCc1ccc(S(=O)(=O)c2ccccc2)cc1S(N)(=O)=O [Example 557, 5-(Phenylsulfonyl)-2-propylbenzenesulfonamide]			fold induction at 15 µM (read-out: Fold Induction with SFRP-1, Conc 15 μM, single dose, luciferase reporter, fold induction over SFRP-1 control, cells with SFRP-1): 1.4; fold induction at 15 µM (read-out: Fold Induction without SFRP-1, Conc 15 μM, single dose, luciferase reporter, cells without SFRP-1 (specificity control)): 1.2
COCCCNS(=O)(=O)c1cc(S(=O)(=O)c2ccc(F)cc2)ccc1C [Example 173, 5-[(4-fluorophenyl)sulfonyl]-N-(3-methoxypropyl)-2-methylbenzenesulfonamide]	2.5	0.8	Fold Induction with SFRP-1 [3]: 2 fold; Fold Induction without SFRP-1 (Conc 15 μM, without SFRP-1, single dose): 1 fold
Cc1ccc(S(=O)(=O)c2ccccc2)cc1S(=O)(=O)NC1CCN(S(=O)(=O)c2cccc3c(N(C)C)cccc23)CC1 [Example 483, N-(1-{[5-(dimethylamino)-1-naphthyl]sulfonyl}piperidin-4-yl)-2-methyl-5-(phenylsulfonyl)benzenesulfonamide]	2.9	1	
O=S(=O)(NCCCN1CCOCC1)c1cccc(S(=O)(=O)c2ccccc2)c1 [Example 185, N-(3-morpholin-4-ylpropyl)-3-(phenylsulfonyl)benzenesulfonamide]			fold induction at 30 µM [1]: 1.3; fold induction at 30 µM [2]: 1.1
O=S(=O)(NCCc1ccccn1)c1cccc(S(=O)(=O)c2ccccc2)c1 [Example 184, 3-(phenylsulfonyl)-N-(2-pyridin-2-ylethyl)benzenesulfonamide]			fold induction at 30 µM [1]: 1.2; fold induction at 30 µM [2]: 0.9
Cc1cc(S(=O)(=O)c2ccccc2)cc(S(=O)(=O)NC2CCN(C(=O)OC(C)(C)C)CC2)c1C [Example 910, tert-butyl 4-({[2,3-dimethyl-5-(phenylsulfonyl)phenyl]sulfonyl}amino)piperidine-1-carboxylate]			fold induction at 10 µM: 1.2
Cc1ccc2c(c1)CCCN2C(=O)CCNS(=O)(=O)c1cc(S(=O)(=O)c2ccccc2)ccc1C [Example 669, 2-methyl-N-[3-(6-methyl-3,4-dihydroquinolin-1(2H)-yl)-3-oxopropyl]-5-(phenylsulfonyl)benzenesulfonamide]			fold induction at 10 µM: 0.9
O=C(NCCNS(=O)(=O)c1cc(S(=O)(=O)c2ccccc2)ccc1C(F)(F)F)c1ccc(F)cc1 [Example 777, 4-Fluoro-N-[2-({[5-(phenylsulfonyl)-2-(trifluoromethyl)phenyl]sulfonyl}amino)ethyl]benzamide]			fold induction at 10 µM: 1.1
CCc1ccc(S(=O)(=O)c2ccccc2)cc1S(=O)(=O)N1CCN(CCN2CCCC2)CC1 [Example 288, 1-{[2-ethyl-5-(phenylsulfonyl)phenyl]sulfonyl}-4-(2-pyrrolidin-1-ylethyl)piperazine]	3.6	1.7	
O=S(=O)(NCCN1CCOCC1)c1cc(S(=O)(=O)c2ccccc2)ccc1Cl [Example 335, 2-chloro-N-(2-morpholin-4-ylethyl)-5-(phenylsulfonyl)benzenesulfonamide]	2.2	1	
Cc1cc(C)c(S(=O)(=O)c2ccccc2)cc1S(=O)(=O)NCC(O)c1ccccc1 (centres unmarked) [Example 389, N-(2-hydroxy-2-phenylethyl)-2,4-dimethyl-5-(phenylsulfonyl)benzenesulfonamide]	1.5	1.1	
Cc1ccc(S(=O)(=O)NCCCn2ccnc2)cc1S(=O)(=O)c1ccccc1 [Example 317, N-[3-(1H-imidazol-1-yl)propyl]-4-methyl-3-(phenylsulfonyl)benzenesulfonamide]	1.2	1.1	
CCc1ccc(S(=O)(=O)c2ccccc2)cc1S(=O)(=O)NCCCc1ccccc1 [Example 245, 2-ethyl-N-(3-phenylpropyl)-5-(phenylsulfonyl)benzenesulfonamide]	1.9	1.2	
Cc1ccc(S(=O)(=O)c2ccccc2)cc1S(=O)(=O)NCCN1CCOCC1 [Example 211, 2-methyl-N-(2-morpholin-4-ylethyl)-5-(phenylsulfonyl)benzenesulfonamide]	2.3	0.7	
Cc1cc(C)c(S(=O)(=O)c2ccc(F)cc2)cc1S(=O)(=O)NCCc1ccccn1 [Example 331, 5-[(4-fluorophenyl)sulfonyl]-2,4-dimethyl-N-(2-pyridin-2-ylethyl)benzenesulfonamide]	2.3	1.1	
CC(=O)NCCNS(=O)(=O)c1cc(S(=O)(=O)c2ccc(F)cc2)ccc1C [Example 168, N-{2-[({5-[(4-fluorophenyl)sulfonyl]-2-methylphenyl}sulfonyl)amino]ethyl}acetamide]	1.7	0.9	
O=C1CCCN1CCCNS(=O)(=O)c1cccc(S(=O)(=O)c2ccccc2)c1 [Example 192, N-[3-(2-oxopyrrolidin-1-yl)propyl]-3-(phenylsulfonyl)benzenesulfonamide]			fold induction at 30 µM [1]: 1.1; fold induction at 30 µM [2]: 1.1
Cc1ccc(S(=O)(=O)c2ccccc2)cc1S(=O)(=O)NCCc1ccncc1 [Example 208, 2-methyl-5-(phenylsulfonyl)-N-(2-pyridin-4-ylethyl)benzenesulfonamide]	2.6	0.9	
Cc1ccc(S(=O)(=O)c2ccc(C)c(S(=O)(=O)NCCc3ccccc3F)c2)cc1 [Example 138, N-[2-(2-fluorophenyl)ethyl]-2-methyl-5-[(4-methylphenyl)sulfonyl]benzenesulfonamide]	2.7	0.9	fold induction at 30 µM [1]: 1.1; fold induction at 30 µM [2]: 0.5
CCc1ccc(S(=O)(=O)c2ccccc2)cc1S(=O)(=O)NCCC(=O)OC [Example 222, methyl N-{[2-ethyl-5-(phenylsulfonyl)phenyl]sulfonyl}-beta-alaninate]	2.4	0.9	
Cc1ccc(S(=O)(=O)c2ccccc2)cc1S(=O)(=O)NC[C@H](C)c1ccccc1 [Example 248, 2-methyl-N-[(2R)-2-phenylpropyl]-5-(phenylsulfonyl)benzenesulfonamide]			fold induction at 20 µM [6]: 2.8; fold induction at 20 µM [7]: 0.9
Cc1ccc(S(=O)(=O)c2cc(F)cc(F)c2)cc1S(=O)(=O)NCCc1ccccn1 [Example 417, 5-[(3,5-difluorophenyl)sulfonyl]-2-methyl-N-(2-pyridin-2-ylethyl)benzenesulfonamide]	1.8	1	
Cc1cc(C)c(S(=O)(=O)c2ccc(F)cc2)cc1S(=O)(=O)NC1CCOCC1 [Example 332, 5-[(4-fluorophenyl)sulfonyl]-2,4-dimethyl-N-(tetrahydro-2H-pyran-4-yl)benzenesulfonamide]	3	1	
O=S(=O)(NCCO)c1cc(S(=O)(=O)c2ccccc2)ccc1Cl [Example 673, 2-chloro-N-(2-hydroxyethyl)-5-(phenylsulfonyl)benzenesulfonamide]			pEC50: 4.80; fold induction at 10 µM: 2
Cc1ccc(S(=O)(=O)c2ccc(F)cc2)cc1S(=O)(=O)NCCCN1CCN(C)CC1 [Example 179, 5-[(4-fluorophenyl)sulfonyl]-2-methyl-N-[3-(4-methylpiperazin-1-yl)propyl]benzenesulfonamide]	2	1.1	
Cc1cc(S(=O)(=O)c2ccccc2)cc(S(=O)(=O)NCCC2CCOCC2)c1C [Example 351, 2,3-dimethyl-5-(phenylsulfonyl)-N-[2-(tetrahydro-2H-pyran-4-yl)ethyl]benzenesulfonamide]	1.5	1.3	
COc1ccc(S(=O)(=O)c2ccccc2)cc1S(=O)(=O)NCCN1CCOCC1 [Example 237, 2-methoxy-N-(2-morpholin-4-ylethyl)-5-(phenylsulfonyl)benzenesulfonamide]	1.1	0.9	Fold Induction with SFRP-1 [3]: 1.4 fold
Cc1ccc(S(=O)(=O)c2ccc(F)cc2)cc1S(=O)(=O)N[C@H]1C[C@@H]1c1ccccc1 [Example 250, 5-[(4-fluorophenyl)sulfonyl]-2-methyl-N-[(1S,2R)-2-phenylcyclopropyl]benzenesulfonamide]			fold induction at 20 µM [6]: 1.4; fold induction at 20 µM [7]: 0.9
Cc1ccc(S(=O)(=O)c2ccccc2)cc1S(=O)(=O)N[C@H]1C[C@@H]1c1ccccc1 [Example 247, 2-methyl-N-[(1S,2R)-2-phenylcyclopropyl]-5-(phenylsulfonyl)benzenesulfonamide]			fold induction at 20 µM [6]: 1.7; fold induction at 20 µM [7]: 0.9

Reference: patent US20060276464A1, “Diarylsulfone sulfonamides and use thereof” (Wyeth, priority 2005, published 2006)
